Test results from PMC9875641, “Ophthalmic Solution of Smart Supramolecular Peptides to Capture Semaphorin 4D against Diabetic Retinopathy” (Advanced Science, 2022).

How the values were obtained:
[1] = TEM morphology and size of SSP nanostructures; format: physicochemical; conditions: for morphology after incubation with sSema4D: sSema4D 6 h, room temperature, mass ratio sSema4D/SSP 1/1000
Protocol: TP-1 to TP-12, SSP-1 and SSP-2 […]
were purchased by GL Biochem (Shanghai) Ltd.
Preparation of peptide-based nanomaterials. SSP-1 or SSP-2 monomers were dissolved in artificial tears at a concentration of 4.0 mM and sonicated for 30 min, followed by quick injection into water at a volume ratio of 1:200 for artificial tears and H2O to obtain the nanomaterials solution (20 μM).
TEM for the morphology. The SSP-1 or SSP-2 solution with the concentration of 20 μM (10 μL) was placed dropwise onto a copper mesh for 5 min, then most of the liquid was removed through a filter paper. Uranyl acetate solution (10 μL) were employed to stain the samples for 5 min, followed by drying the spare liquid with the filter. Finally, the copper mesh was washed with 10 μL of deionized water, which was blotted after staining and drying at room temperature. All of the samples were observed by TEM (Tecnai G2 20 S-TWIN) at an accelerating voltage of 120 kV. […]

[2] = test system: in vitro BRB model (ARPE-19 layer and HUVEC layer)
STZ model = assay: STZ-induced retinopathy model, retinal vascular leakage; format: in vivo, mouse; conditions: for reduction of retinal vascular leakage by eye drops plus anti-VEGF injection compared with anti-VEGF injection alone: Evans blue, anti-VEGF antibody 2 µg intravitreal at third month, eye drops twice a day for 30 d, on average; for reduction of retinal vascular leakage by eye drops plus anti-VEGF injection compared with anti-VEGF injection alone / vascular leakage (Evans blue assay): n = 9; for diabetes-induced retinal acellular capillary formation: eye drops 10 µL per eye twice daily for 30 d, PDGFRb/collagen IV staining, n = 6
Protocol: follows: 5’-[…]-3’, 5’-
STZ. Eight-week-old male C57BL/6 mice were starved for 4 hours before each […]
injection of streptozotocin (STZ, Sigma, St. Louis, MO), and then injected with STZ […]
(50 mg/kg) for 5 consecutive days. Mice in the vehicle control group were […]
intraperitoneally injected with citrate buffer for 5 consecutive days. A blood glucose […]
meter (ONETOUCH, Johnson & Johnson, USA) was used to evaluate the fasting […]
blood glucose of the mice 7 days after the last injection of STZ. Mice with blood […]
glucose levels greater than or equal to 16.7 mM were considered successful in STZ […]
modeling. […]
Evans blue assay. Mice were intraperitoneally injected with Evans Blue dye (200 mg/kg) and circulated for 5 hours. The mice were perfused with PBS, and the eyes were fixed with 4% PFA at 4 degrees Celsius for 12 hours, and the retina was separated. Some retinas are tested for Evans Blue fluorescence using a fluorescence microscope. Adding formamide (70 μL/piece) to the rest of the retina and incubate overnight at 70°C to extract the […]. Detect the absorbance of formamide at 620/740 nm (background) with a microplate reader. Calculate the content of Evans blue in the retina from the standard curve, and then standardize it based on the weight of the retina and the content of Evans blue in the blood. […]
Statistical analysis. Statistical analysis was conducted using Graphpad Prism 8.0 software. All data were expressed by mean ± SD. Unpaired two-tailed Student’s t-test (two groups) or one-way ANOVA (more than 2 groups) was used to analyze the statistical significances of the data. Person’s correlation analysis was conducted to […]

sSema 4D = target: T1, sSema 4D (Homo sapiens, UniProt Q92854); assay: ELISA binding affinity of TPs and SSPs to sSema 4D (and BSA)
T1 construct: purchased Novoprotein Ltd. (Suzhou, China)
T1 sequence (Q92854 22-734 limits assumed): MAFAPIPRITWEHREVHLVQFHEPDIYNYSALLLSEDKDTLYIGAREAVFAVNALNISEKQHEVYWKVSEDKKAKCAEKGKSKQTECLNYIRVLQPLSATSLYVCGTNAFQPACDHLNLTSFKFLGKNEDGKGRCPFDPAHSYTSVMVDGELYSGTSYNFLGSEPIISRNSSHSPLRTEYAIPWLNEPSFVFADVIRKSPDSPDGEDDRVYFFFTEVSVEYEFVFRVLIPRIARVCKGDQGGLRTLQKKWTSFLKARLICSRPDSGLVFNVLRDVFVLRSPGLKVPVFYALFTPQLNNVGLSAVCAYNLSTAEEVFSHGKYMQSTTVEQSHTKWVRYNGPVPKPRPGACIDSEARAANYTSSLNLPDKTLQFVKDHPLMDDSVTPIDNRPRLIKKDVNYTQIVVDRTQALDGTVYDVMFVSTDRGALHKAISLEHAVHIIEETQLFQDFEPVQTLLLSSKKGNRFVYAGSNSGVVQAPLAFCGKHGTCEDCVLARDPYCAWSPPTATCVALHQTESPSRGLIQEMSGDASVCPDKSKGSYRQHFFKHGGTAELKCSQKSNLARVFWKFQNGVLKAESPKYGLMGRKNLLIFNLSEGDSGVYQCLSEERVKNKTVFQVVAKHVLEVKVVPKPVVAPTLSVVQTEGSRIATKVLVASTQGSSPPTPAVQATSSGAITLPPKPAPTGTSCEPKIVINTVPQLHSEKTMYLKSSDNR
Protocol: To carry out the library screening, we first labeled the sSema4D with fluorescein isothiocyanate isomer (FITC), as shown in Figure 2E. Next, ≈10^6 beads library was incubated with FITC‐labeled sSema4D for 6 hours. The beads were thoroughly washed with DMF, water and methanol. Finally, under the fluorescence microscope, the beads with […] to sSema4D or FITC‐labeled sSema4D through noncovalent bonding were identified in Figure 2F. We selected twelve strongest putative fluorescent beads by physical separation. Subsequently, the corresponding peptides were cleaved off with BrCN from beads and analyzed by automatic Edman sequencing. The structures and sequence of transformable peptides (TPs) were determined and summarized (Figure S2, Supporting Information). TP‐1 to TP‐12 were resynthesized into solid phase and purified by high performance liquid chromatography (HPLC). The binding affinity of TPs toward sSema 4D was measured by enzyme‐linked immunosorbent assay (ELISA) and surface plasmon resonance imaging (SPRi). […] TP‐2 and TP‐7 were selected as the candidate TP binding sSema 4D to construct SSP. Subsequent SSP monomers (SSP‐1, sequence: C16‐FFVLK‐KQKRPRH; SSP‐2 C16‐FFVLK‐KNKAAKG) were synthesized and characterized by HPLC and Matrix‐assisted laser desorption/ionization time‐of‐flight mass spectrometry (MALDI‐TOF‐MS).

[3] = self-assembled in water, 20 μM, without sSema4D
[4] = eye drops 10 µL per eye twice daily for 30 d after third month since diabetes induction, equal to intraocular anti-Sema4D antibody
[5] = intravitreal injection at third month since diabetes induction, retinas at fourth month, similar to anti-Sema4D antibody

Row | Substance | morphology after incubation with sSema4D [1] | average length of nanorods [1, 3] [nm] | transfer across the in vitro BRB [2] | reduction of retinal vascular leakage by eye drops plus anti-VEGF injection compared with anti-VEGF injection alone (STZ model) [%] | diabetes-induced retinal acellular capillary formation (STZ model) | vascular leakage (Evans blue assay) (STZ model; [4]) | vascular leakage (Evans blue assay) (STZ model; [5]) | binding affinity with sSema4D on ELISA, compared with TPs (sSema 4D) | average size of NPs [1, 3] [nm]
1 | C16‐FFVLK‐KNKAAKG [SSP-2, smart supramolecular peptide, C16‐FFVLK‐KNKAAKG, self-assembling, captures sSema4D] | long‐size of nanofibrillar structures | 190 ± 23.9 | effectively transferred across the BRB | 15.49 | ameliorated | significantly decreased | significantly decreased | higher binding affinity compared with TPs | 
2 | C16‐FFVLK‐KQKRPRH [SSP-1, smart supramolecular peptide, C16‐FFVLK‐KQKRPRH, self-assembling, captures sSema4D] | dense NFs network structures |  | effectively transferred across the BRB | 20.21 | ameliorated | significantly decreased | significantly decreased | higher binding affinity compared with TPs | 44.8 ± 2.9
